Source: patent US20080081781A1, “Methods and compositions for the treatment of metabolic syndrome” (priority 2004, published 2008)

Experiments:
LDLR [1] = assay: Cell surface LDLR protein on Bel-7402 cells (FACS); format: cell-based, human; details: Bel-7402 cells treated with 5 μg/ml
Procedure: Bel-7402 cells treated with 5 μg/ml of berberine were detached with cell removal buffer containing EDTA, washed and resuspended in FACS solution (PBS with 0.5% BSA and 0.02% sodium azide) at a density of 1×10^6 cells/ml. Cells were then incubated with monoclonal antibody to LDLR (Santa Cruz Biotechnology, Inc., Santa Cruz, Calif.) at a final dilution of 1:50 and left at room temperature for 1 hour. The cells were then reacted with isotope matched, nonspecific mouse IgG as a control for nonspecific staining. The cells were then washed and stained with FITC conjugated goat antibody to mouse IgG (Santa Cruz Biotechnology, Inc., Santa Cruz, Calif., 1:100 dilution) and the fluorescence intensity was analyzed by FACS (FACSort, Becton Dickinson, Franklin Lakes, N.J.).

InsR mRNA [2] = assay: Rat liver InsR and LDLR mRNA (quantitative real time RT-PCR); format: in vivo; details: rats, 14 days
Procedure: The livers were dissected and stored in liquid nitrogen for RNA extraction, real-time RT-PCR and PKC activity assay. Total blood samples were also collected to assay fasting blood glucose and serum insulin levels. The insulin levels were analyzed using radio-immunoassay (Linco Research, St Charles, Mo.). The insulin sensitivity indexes (ISI) were calculated according to the formula: 10^4/(fasting serum insulin X fasting blood glucose) (Hanson, Am. J. Epidemiol. 15 1(2), 190-198 (2000)). The insulin level and ISI of normal rats were also determined for comparison. […] It also elevated the fasting blood glucose from 7 to 12.8 mmol/L (P<0.001).
Liver mRNA extracts were used for quantitative real time RT-PCR assay. Total cellular RNA was reverse-transcribed into cDNA using the Reverse Transcription System (Promega, Madison, Wis.). Quantitative real-time PCR were performed with these cDNA using the Applied Biosystems 7500 Real-Time PCR System and TaqMan® Universal PCR Master Mix (Applied Biosystems, Foster City, Calif.). […] 2.5 μl of cDNA sample, 12.5 μl of Universal PCR Master Mix, and 1.25 μl of TaqMan® Gene Expression Assay reagent were mixed in a 25 μl reaction system, and the comparative CT method was used in relative gene quantification using the TaqMan® SDS analysis software. […]

ERK = ERK activation in HepG2 or Bel-7402 cells (western blotting, phosphorylated ERK); format: cell-based, human; details: both hepatoma cell lines HepG2 and Bel-7402; 0.25-24 hours
Procedure: HepG2 or Bel-7402 cells were treated with berberine for 0.25, 0.5, 0.75, 1, 2, 8, and 24 hours respectively and tested for levels of activated ERK by western blotting using antibodies that only recognize the activated (phosphorylated) ERK. […] The activation of berberine is also dose dependent (FIG. 14C).

in vivo [3] = assay: in vivo; set-up: species or system canine (beagle); details: beagle, dog
Procedure: In parallel animal model studies, four canine (beagle) subjects were given 45 mg/kg of berberine orally. Serum concentrations of the drug were determined by HPLC at 2 and 3 hours after administration. […] After the berberine had cleared the system, the same dog was then administered 700 mg/kg of berberine and blood samples were taken 2, 3, 5, 7, 9 and 24 hours after administration resulting in concentrations of 21.51, 44.89, 49.54, 36.35, 27.83, and 16.01 ηg/ml respectively.

LDLR [4] = assay: Hamster liver LDLR mRNA and protein expression (real-time RT-PCR, western blot); format: in vivo, Chinese hamster; details: 100 mg/kg/day of berberine, end of treatment
Procedure: Two weeks prior to treatment, female Chinese hamsters purchased from the National Institute of Vaccine and Serum research (Beijing, China) were switched to a high fat and cholesterol diet (10% lard, 10% egg yolk powder and 1% cholesterol). After two weeks, groups of 14 hamsters were given either 10 mg/kg/day of berberine through peritoneal injection, 20 mg/kg/day of berberine through peritoneal injection, 50 mg/kg/day, 100 mg/kg/day of berberine orally or saline for ten days. Serum cholesterol, triglyceride and LDL levels were measured after 4 h fasting before, during and after the course of the treatment. Four hours after the course of the treatment, the animals were sacrificed and their livers removed for analysis.
At the end of treatment, three animals from each group were killed and liver LDLR mRNA and protein expressions were examined by quantitative real-time RT-PCR and western blot analysis. For the real-time RT-PCR, reverse transcription with random primers using Superscript II at 42° C. for 30 minutes with 1 μg of total RNA was performed using the ABI Prism 7900-HT Sequence Detection System and Universal MasterMix (Applied Biosystems, Foster City, Calif.). LDLR and GAPD mRNA expression levels were determined using the human LDLR and GAPD Pre-developed TaqMan Assay Reagents (Applied Biosystems).

in vivo [5] = details: rabbit, 50 mg/kg
Procedure: 50 mg/kg of berberine was administered through stomach infusion to six rabbits. Serum samples were taken at various points after administration and RP-HPLC was used to measure the drug concentration.

InsR mRNA [6] = assay: InsR mRNA stability after actinomycin D in HepG2 cells (slot blot); format: cell-based, human; details: HepG2, […] 8 h then actinomycin D; untreated cells 4.4 hr
Procedure: HepG2 cells were treated or untreated with 7.5 μg/ml of berberine for 8 h. Then, 5 μg/ml of actinomycin D was added to block the transcription. Total cellular RNA was harvested at 0, 2, 4, 6, or 8 hours after actinomycin D treatment, and slot-blotted to nitrocellulose membranes as described above. The membranes were respectively hybridized with InsR and ACTB specific probes as described above, and bands were quantitated through densitometry. The InsR mRNA levels were normalized to ACTB, and their remaining percentages are plotted against time and the decaying rate or half-life of InsR mRNA was calculated (FIG. 21B).

For `COc1ccc2cc3[n+](cc2c1OC)CCc1cc2c(cc1-3)OCO2` [berberine], the “increase of cell surface LDLR protein expression” value (LDLR [1]) was 4 times, the “increase in InsR mRNA in the livers” value (InsR mRNA [2]; 75 mg/kg/day) was 1.8 fold and the “increase in InsR mRNA in the livers” value (InsR mRNA [2]; 150 mg/kg/day) was 2.3 fold. For the same molecule, the “ERK activation (phosphorylated ERK)” value (ERK) was “rapidly activated ERK”, the concentration at 2 hours (in vivo [3]; 280 mg/kg) was 31400 ng/mL and the serum concentration (in vivo [3]; 280 mg/kg, 3 hours) was 22.6 ηg. For the same molecule, the concentration at 2 hours (in vivo [3]; 700 mg/kg) was 21.5 ng/mL, the concentration at 3 hours (in vivo [3]; 700 mg/kg) was 44.9 ng/mL and the concentration at 5 hours (in vivo [3]; 700 mg/kg) was 49.5 ng/mL. It also gave a concentration at 7 hours (in vivo [3]; 700 mg/kg) of 36.4 ng/mL, a concentration at 9 hours (in vivo [3]; 700 mg/kg) of 27.8 ng/mL and a concentration at 24 hours (in vivo [3]; 700 mg/kg) of 16 ng/mL. For the same molecule, the “increase in LDLR mRNA in hamster livers” value (LDLR [4]) was 3.5 fold, the “increase in LDLR protein in hamster livers” value (LDLR [4]) was 2.6 fold and the “peak time Tpeak” value (in vivo [5]) was 0.63 ± 0.25 h. It also gave an AUC (in vivo [5]; po) of 492 ± 296 ng·h/mL, a Cmax (in vivo [5]; po) of 92.7 ± 50.9 ng/mL and a half-life (in vivo [5]; po) of 3.11 ± 0.58 h. The “turnover rate (half-life) of InsR transcript” value (InsR mRNA [6]) was 4.7 h.
